In data set [1] the test system is MCF7. Nature of the data set: Antiproliferative activity against human MCF7 cells assessed as reduction in cell viability incubated for 72 hrs by MTT assay. Conditions: MCF7, 72 h. The format is functional, cell-based. (Formazan colour is commonly taken as a measure of viable cells.)
For data set [2], the system named is SGC-7901. The data set is described as follows: Antiproliferative activity against human SGC-7901 cells assessed as reduction in cell viability incubated for 72 hrs by MTT assay. The data set is classed as functional, cell-based. As to conditions: SGC-7901, 72 h.
The test system of data set [3] is A549. Nature of the data set: Antiproliferative activity against human A549 cells assessed as reduction in cell viability incubated for 72 hrs by MTT assay. The data set is classed as functional, cell-based. Conditions: A549, 72 h.
Data set [4] concerns the target T1, Tubulin (Homo sapiens) (UniProt P68371+Q9H4B7+P0DPH7+P68366+Q13509+Q71U36+P04350+Q3ZCM7+P07437+P68363+Q9BQE3+Q6PEY2+Q13885+Q9BVA1+Q9BUF5). Nature of the data set: Inhibition of microtubule polymerization in human MCF7 cells assessed as disorganisation of microtubule by measuring short and wrapped structure at 2 times IC50 incubated for 24 hrs by DAPI staining based immunofluorescence assay. The data set is classed as cell-based.

Data set [5] is filed under the species Sus scrofa. Nature of the data set: Inhibition of porcine brain tubulin polymerization measured every 1 min for 90 mins by microplate based assay in the presence of GTP.
Data set [6] has as its system MCF7. The data set is described as follows: Induction of cell cycle arrest in human MCF7 cells assessed as accumulation of cells at G2/M phase at 0.5 fold IC50 measured after 24 hrs by flow cytometry (reference value: 11 %). The format is functional. On the technique in general: Flow cytometry measures light scatter and fluorescence of single cells or particles in a stream.

Data set [7] concerns MCF7. The data set is described as follows: Induction of cell cycle arrest in human MCF7 cells assessed as accumulation of cells at G2/M phase at 1 fold IC50 measured after 24 hrs by flow cytometry (reference value: 11 %). The data set is classed as functional.
In data set [8] the test system is MCF7. Nature of the data set: Induction of cell cycle arrest in human MCF7 cells assessed as accumulation of cells at G2/M phase at 2 fold IC50 measured after 24 hrs by flow cytometry (reference value: 11 %). The data set is classed as functional.
For data set [9], the system named is MCF7. Nature of the data set: Induction of apoptosis in human MCF7 cells assessed as viable cells at 1 fold IC50 after 48 hrs by Annexin-V-FITC/PI-staining based flow cytometric analysis (reference value: 96.2%). The data set is classed as functional.
The subject of data set [10] is MCF7. Nature of the data set: Induction of apoptosis in human MCF7 cells assessed as early apoptotic cells at 1 fold IC50 after 48 hrs by Annexin-V-FITC/PI-staining based flow cytometric analysis (reference value: 1.59%). The data set is classed as functional.
The subject of data set [11] is MCF7. Nature of the data set: Induction of apoptosis in human MCF7 cells assessed as late apoptotic cells at 1 fold IC50 after 48 hrs by Annexin-V-FITC/PI-staining based flow cytometric analysis (reference value: 0.556%). The data set is classed as functional.
The test system of data set [12] is MCF7. Nature of the data set: Induction of apoptosis in human MCF7 cells assessed as necrotic cells at 1 fold IC50 after 48 hrs by Annexin-V-FITC/PI-staining based flow cytometric analysis (reference value: 1.61%). The format is functional.
The subject of data set [13] is MCF7. Nature of the data set: Induction of apoptosis in human MCF7 cells assessed as viable cells at 2 fold IC50 after 48 hrs by Annexin-V-FITC/PI-staining based flow cytometric analysis (reference value: 96.2%). The data set is classed as functional.
Data set [14] has as its system MCF7. The data set is described as follows: Induction of apoptosis in human MCF7 cells assessed as early apoptotic cells at 2 fold IC50 after 48 hrs by Annexin-V-FITC/PI-staining based flow cytometric analysis (reference value: 1.59%). The data set is classed as functional.
Data set [15] has as its system MCF7. The data set is described as follows: Induction of apoptosis in human MCF7 cells assessed as late apoptotic cells at 2 fold IC50 after 48 hrs by Annexin-V-FITC/PI-staining based flow cytometric analysis (reference value: 0.556%). The data set is classed as functional.
The test system of data set [16] is MCF7. Nature of the data set: Induction of apoptosis in human MCF7 cells assessed as necrotic cells at 2 fold IC50 after 48 hrs by Annexin-V-FITC/PI-staining based flow cytometric analysis (reference value: 1.61%). The format is functional.
Data set [17] concerns MCF7. The data set is described as follows: Induction of apoptosis in human MCF7 cells assessed as viable cells at 3 fold IC50 after 48 hrs by Annexin-V-FITC/PI-staining based flow cytometric analysis (reference value: 96.2%). The data set is classed as functional.
For data set [18], the system named is MCF7. Nature of the data set: Induction of apoptosis in human MCF7 cells assessed as early apoptotic cells at 3 fold IC50 after 48 hrs by Annexin-V-FITC/PI-staining based flow cytometric analysis (reference value: 1.59%). The data set is classed as functional.
The test system of data set [19] is MCF7. Nature of the data set: Induction of apoptosis in human MCF7 cells assessed as late apoptotic cells at 3 fold IC50 after 48 hrs by Annexin-V-FITC/PI-staining based flow cytometric analysis (reference value: 0.556%). The format is functional.
Data set [20] relates to MCF7. Nature of the data set: Induction of apoptosis in human MCF7 cells assessed as necrotic cells at 3 fold IC50 after 48 hrs by Annexin-V-FITC/PI-staining based flow cytometric analysis (reference value: 1.61%). The data set is classed as functional.
Data set [21] relates to MCF7. Nature of the data set: Inhibition of cell migration in human MCF7 cells measured after 24 hrs by phase-contrast microscopy based wound healing assay. The data set is classed as functional. Conditions: dose 25-50 nM.
Data set [22] has as its system 4T1. Nature of the data set: Antitumor activity against mouse 4T1 cells xenografted in BALB/c mouse assessed as reduction in tumor weight at 2.5 mg/kg, iv administered every 2 days for 2 weeks. The format is functional. On the set-up: scale not given: the % may be the effect or the level left.
Data set [23] can be described thus: Toxicity in BALB/c nude mouse xenografted with mouse 4T1 cells assessed as body weight loss at 2.5 mg/kg, iv administered every 2 days for 2 weeks relative to control. The data set is classed as organism-based. As to conditions: in vivo, 336 h.
Data set [24] can be described thus: Toxicity in BALB/c nude mouse xenografted with human MCF7 cells assessed as effect on heart at 2.5 mg/kg, iv administered every 2 days for 2 weeks. The data set is classed as organism-based. As to conditions: in vivo, 336 h.
Data set [25] can be described thus: Toxicity in BALB/c nude mouse xenografted with human MCF7 cells assessed as effect on liver at 2.5 mg/kg, iv administered every 2 days for 2 weeks. The format is organism-based. Conditions: in vivo, 336 h.
Data set [26] in a line: Toxicity in BALB/c nude mouse xenografted with human MCF7 cells assessed as effect on spleen at 2.5 mg/kg, iv administered every 2 days for 2 weeks. The format is organism-based. As to conditions: in vivo, 336 h.
Data set [27] can be described thus: Toxicity in BALB/c nude mouse xenografted with human MCF7 cells assessed as effect on kidney at 2.5 mg/kg, iv administered every 2 days for 2 weeks. As to conditions: in vivo, 336 h. The data set is classed as organism-based. In general terms: Xenograft models place foreign cells or tissue in a host animal.
Data set [28] addresses T1, Tubulin (Homo sapiens). The data set is described as follows: Binding affinity to colchicine binding site of tubulin (unknown origin) assessed as decrease in fluorescence of colchicine-tubulin complex by fluorescence based assay. The format is protein-complex assay.

Active and inactive are the calls of the source. The calls are words filed in the database; no cut-off is given here.

One may read the IC50 as the concentration needed to halve the response being measured. With `COc1ccc(-c2ccc3ncn(-c4cc(OC)c(OC)c(OC)c4)c3c2)cc1F`, the IC50 in data set [1] was 0.52 µM; in [2] it was 0.43 µM; in data set [3] it was 1.43 µM.

Consider `COc1ccc(-c2ccc3ncn(-c4cc(OC)c(OC)c(OC)c4)c3c2)cc1O`, for which the inhibition entry in data set [4] was “Active”. Besides, the IC50 worked out at 0.037 µM in data set [1], 0.044 µM in data set [2] and 0.2 µM in data set [3]. In addition, the inhibition entry in data set [5] and in data set [21] was “Dose-Dependent Effect” each time. In addition, the Activity is recorded as 15% in [6]; 22% in data set [7]; 72% in data set [8]; 75.1% in data set [9]; 16% in [10]; 4.4% in [11]. The Activity in [12] worked out at 1.51%; in data set [13], 52.8%; in [14] it was 35.6%; in data set [15], 10.4%; in [16], 0.96%; in [17] it was 50.6%. Besides, the Activity is given as 37.6% in [18]; 11.4% in data set [19]; 0.271% in data set [20]; 52% in [22]; “Non-Toxic” in data set [23]; “Non-Toxic” in data set [24]. The Activity entry in [25], in data set [26] and in [27] was “Non-Toxic” throughout. The result in data set [28] was Active.

Turning to `COc1cc(-n2cnc3ccc(-c4cccc(F)c4)cc32)cc(OC)c1OC`, the IC50 in [1] stood at 2.35 µM; in [2] it was 2.49 µM; in [3] it was 5.27 µM.

With `COc1cc(-n2cnc3ccc(-c4ccc(C(C)=O)cc4)cc32)cc(OC)c1OC`, the IC50 worked out at 1.54 µM in data set [1], 0.45 µM in [2] and 2.51 µM in data set [3].

Turning to `COc1cc(-n2cnc3ccc(-c4cccc(C)c4C)cc32)cc(OC)c1OC`, the IC50 amounted to 2.15 µM in data set [1], 3.04 µM in [2] and 9.25 µM in data set [3].

Take `COc1cc(-n2cnc3ccc(-c4ccc(F)cc4)cc32)cc(OC)c1OC`: the values for the IC50 in [1], in data set [2] and in data set [3] were 1.77 µM, 3.5 µM and 6.74 µM, respectively.

As for `COc1cc(-n2cnc3ccc(-c4ccc(Cl)cc4)cc32)cc(OC)c1OC`, the IC50 is 1.32 µM in data set [1], 1.27 µM in data set [2] and > 10 µM in [3].

As for `COc1cc(-n2cnc3ccc(-c4ccc(C)cc4F)cc32)cc(OC)c1OC`, the 50% inhibitory concentration (IC50) is 0.056 µM in data set [1], 5.65 µM in data set [2] and > 10 µM in data set [3].

Consider `COc1cc2c(c(OC)c1OC)-c1ccc(OC)c(=O)cc1[C@@H](NC(C)=O)CC2` [COLCHICINE], for which the IC50 stood at 0.018 µM in data set [1], 0.007 µM in data set [2] and 0.095 µM in [3].

As for `COc1cc(-n2cnc3ccc(-c4cccc(Cl)c4)cc32)cc(OC)c1OC`, the values for the IC50 in data set [1], in data set [2] and in data set [3] were 3.12 µM, 1.49 µM and 7.05 µM, respectively.

For `COc1cc(-n2cnc3ccc(-c4ccccc4Cl)cc32)cc(OC)c1OC`, the IC50 in [1], in [2] and in data set [3] was > 10 µM each time.

Consider `COc1cc(-n2cnc3ccc(-c4ccc([N+](=O)[O-])cc4)cc32)cc(OC)c1OC`, for which the results for the IC50 in [1], in data set [2] and in [3] were 0.74 µM, 0.079 µM and 8.94 µM, respectively.

Consider `COc1cc(-n2cnc3ccc(-c4cccc(O)c4)cc32)cc(OC)c1OC`, for which the figures for the IC50 in data set [1], in data set [2] and in data set [3] were 0.35 µM, 0.053 µM and 0.25 µM, respectively.

For `COc1cc(-n2cnc3ccc(-c4ccc(C(F)(F)F)cc4)cc32)cc(OC)c1OC`, the results for the IC50 in data set [1], in data set [2] and in data set [3] were 0.76 µM, 0.89 µM and 3.39 µM, respectively.

The values above are taken from ChEMBL document CHEMBL5038611, “Design, synthesis and bioevaluation of 6-aryl-1-(3,4,5-trimethoxyphenyl)-1H-benzo[d]imidazoles as tubulin polymerization inhibitors” (Eur J Med Chem, 2021).
